Measured values published in patent US20110144376A1, “DERMATOLOGICAL AGENT” (SHOWA DENKO K.K., priority 2008, published 2011).

Columns and labels:
[1] = test system: three dimensional human skin model MEL-300 (normal human skin keratinocytes containing normal human epidermal melanocytes); assay: Inhibitory effects for melanocyte dendrite formation (three dimensional human skin model); format: cell-based; conditions: 0.1 ml of a 30 mmol/l solution, MEL-300 cups, 7 days of incubation, vs 0.2% ethanol control, Scheffe, significance level 5%, n=3 (FIG. 1)
Description: Melanin formation inhibitory effects of the compounds 4 and 5 shown in Table 1 were evaluated using three dimensional human skin model MEL-300 (normal human skin keratinocytes containing normal human epidermal melanocytes). The MEL-300 skin model cups were transferred to a 6-well plate, each well containing 0.9 ml of EPI-100-LLMM maintenance medium, and were pre-incubated at 37° C. and 5% CO2 for 1 hour.
The maintenance medium was suction removed, and 5 ml of the maintenance medium was newly added. Thereafter, 0.1 ml of a 30 mmol/l solution of the compound 4 or 5 was added to the MEL-300 skin model cups, and the resultant were incubated. The controls were given 0.1 ml of a 0.2% ethanol solution.
The maintenance medium and the test substance were replaced every two days, and the incubation was performed for 7 days. After the 7 days of incubation, the cells inside the three dimensional human skin model cup were photographed, and the proportion (%) of the area of melanocytes was calculated by image analysis. Significant difference was tested by a post-hoc test (Scheffe method). The significance level was 5%. […] In this experiment, n=3.

[2] = test system: three dimensional human skin model MEL-300 (normal human skin keratinocytes containing normal human epidermal melanocytes); assay: Melanin synthesis inhibitory test (three dimensional human skin model); format: cell-based; conditions: 0.1 ml of a 30 mmol/l solution, MEL-300 cups, 14 days of incubation, vs 0.2% ethanol control, Scheffe, significance level 1%, n=3 (FIG. 2)
Description: Melanin formation inhibitory effects of the compounds 4 or 5 shown in Table 1 were evaluated using three dimensional human skin model MEL-300 (normal human skin keratinocytes containing normal human epidermal melanocytes). The MEL-300 skin model cups were transferred to a 6-well plate, each well containing 0.9 ml of EPI-100-LLMM maintenance medium, and were pre-incubated at 37° C. and 5% CO2 for 1 hour.
The maintenance medium was suction removed, and 5 ml of the maintenance medium was newly added. Thereafter, 0.1 ml of a 30 mmol/l solution of the compound 4 or 5 was added to the MEL-300 skin model cups, and the resultant were incubated. The controls were given 0.1 ml of a 0.2% ethanol solution. The positive controls were given 0.1 ml of a 30 mmol/l kojic acid solution.
The maintenance medium and the test substance were replaced every two days, and the incubation was performed for 14 days. […]
After the reaction, the reaction liquid was sufficiently stirred and the incubated skin piece was completely crushed. […] The supernatant was analyzed to determine the absorbance at 405 nm. A linear calibration curve was prepared based on the absorbances of melanin solutions of known concentrations that had been treated similarly. The melanin contents in the incubated skin pieces were thus determined. […]

C3H mice = assay: Accelerating effects for mouse body hair growth; format: in vivo; conditions: male C3H/HeN mice, shaved dorsal region, 0.1 ml of a 50 μmol/g ointment once a day, Day 18, vs coating stimulation only, Scheffe, significance level 5%, n=6 (FIG. 3)
Description: Male C3H/HeN that were seven weeks old in a telogen hair cycle were used.
The dorsal region of the mice was shaved with an electrical hair clipper (0.05 mm blades) and an electrical shaver. From the next day, 0.1 ml of a 50 μmol/g ointment of the compound 4 or 5 was coated on the shaved regions once a day using a bacteria spreader. The controls were given only coating stimulation with a bacteria spreader.
The dorsal region of the mice on Day 18 after the initiation of coating was photographed. The proportion of the area of the region where hair had regrown relative to the total area of the shaved region was calculated by image analysis. The value obtained thereby indicated the hair regrowth rate (%). Significant difference was tested by a post-hoc test (Scheffe method). The significance level was 5%.
In this experiment, n=6 for the test substances and n=7 for the controls.

[3] = background art statement; cited from earlier work

With `COc1c(OC(=O)CN(C)C)c(C)c(CC=C(C)CCC=C(C)CCC=C(C)CCC=C(C)CCC=C(C)CCC=C(C)CCC=C(C)CCC=C(C)CCC=C(C)CCC=C(C)C)c(OC(=O)CN(C)C)c1OC.Cl` [Compound 4, 2,3-dimethoxy-5-methyl-6-decaisoprenylbenzene 1,4-bis-N,N-dimethyl glycinate hydrochloride] the “formation of melanocyte dendrites (proportion (%) of the area of melanocytes by image analysis)” value [1] was “significantly inhibited”, the “melanin production (melanin contents in the incubated skin pieces, absorbance at 405 nm)” value [2] was “significantly decreased” and the “hair regrowth rate (%)” value (C3H mice) was “significantly increased”.

In the case of `COc1c(O)c(CC=C(C)CCC=C(C)CCC=C(C)CCC=C(C)CCC=C(C)CCC=C(C)CCC=C(C)CCC=C(C)CCC=C(C)CCC=C(C)C)c(C)c(OC(=O)CN(C)C)c1OC.Cl` [Compound 5, 2,3-dimethoxy-5-methyl-6-decaisoprenyl-1-hydroxybenzene 4-N,N-dimethyl glycinate hydrochloride], the “formation of melanocyte dendrites (proportion (%) of the area of melanocytes by image analysis)” value [1] is reported as “significantly inhibited”, the “melanin production (melanin contents in the incubated skin pieces, absorbance at 405 nm)” value [2] is reported as “significantly decreased” and the “hair regrowth rate (%)” value (C3H mice) is reported as “significantly increased”.

For `COC1=C(OC)C(=O)C(CC=C(C)CCC=C(C)CCC=C(C)CCC=C(C)CCC=C(C)CCC=C(C)CCC=C(C)CCC=C(C)CCC=C(C)CCC=C(C)C)=C(C)C1=O` [ubiquinone-10, 2,3-dimethoxy-5-methyl-6-decaisoprenyl-1,4-benzoquinone], the solubility in water [3] is given as “completely insoluble in water”.
